For 23 compounds, MIC results are on record in patent US20250051356A1, “RIFABUTIN ANALOGS FOR THE TREATMENT OF DISEASE” (priority 2021, published 2025).

≈ marks a conversion by molar mass, not a printed value. Where two headings read alike, the source gives them in different places.

Common to all, as to assay type: cell-based
Test [1] has as its system S. aureus (UAMS-1625 strain). Description: MIC by broth microdilution against S. aureus. To be noted: Staphylococcus aureus, read-out: MIC S. aureus. In general terms: In broth dilution the organism is exposed to a series of concentrations in liquid medium.
In test [2] the test system is A. baumannii (HUMC1 strain). In words: MIC by broth microdilution against A. baumannii in RPMI + 10% FCS. The following applies: Acinetobacter baumannii, read-out: MIC A. baumannii.
The test system of test [3] is M. abscessus subsp. abscessus ATCC 19977. Description: MIC against M. abscessus in Middlebrook 7H9 + ADC. The following applies: Mycobacteroides abscessus.
Setting [4] is: ATCC19977, ATCC 19977, 7H9 + ADC, read-out: MIC M. abscessus.

The term MIC denotes the smallest concentration in the dilution series that meets the test's criterion for growth inhibition.

On to `CO[C@H]1/C=C/O[C@@]2(C)Oc3c(C)c(O)c4c(c3C2=O)C2=NC3(CCN(CC(C)C)CC3)NC2=C(NC(=O)/C(C)=C\C=C\[C@H](C)[C@H](O)[C@@H](C)[C@@H](O)[C@@H](C)[C@H](OC(=O)CC(=O)OC2CCN(C)CC2)[C@@H]1C)C4=O` [Compound 45], for which the MIC in test [1] is 0.06 mg/L (≈ 0.0607 µM); in test [2] (HUMC1 strain, RPMI + 10% FCS), 0.004 mg/L; in test [3] (setting [4]), 0.5 mg/L.
With `CO[C@H]1/C=C/O[C@@]2(C)Oc3c(C)c(O)c4c(c3C2=O)C2=NC3(CCN(CC(C)C)CC3)NC2=C(NC(=O)/C(C)=C\C=C\[C@H](C)[C@H](O)[C@@H](C)[C@@H](O)[C@@H](C)[C@H](OC(=O)CC(=O)N2CCC(n3c(=O)[nH]c5ccccc53)CC2)[C@@H]1C)C4=O` [Compound 46], the MIC in test [1] was 0.25 mg/L (≈ 0.229 µM); in test [2] (HUMC1 strain, RPMI + 10% FCS) it was 0.03 mg/L; in test [3] (setting [4]), 0.5 mg/L.
In the same order, the values of `CO[C@H]1/C=C/O[C@@]2(C)Oc3c(C)c(O)c4c(c3C2=O)C2=NC3(CCN(CC(C)C)CC3)NC2=C(NC(=O)/C(C)=C\C=C\[C@H](C)[C@H](O)[C@@H](C)[C@@H](O)[C@@H](C)[C@H](OC(=O)CC(=O)N2CCC(n3c(=O)[nH]c5cc(Cl)ccc53)CC2)[C@@H]1C)C4=O` [Compound 47] are 1 mg/L (≈ 0.889 µM), 0.125 mg/L and 0.5 mg/L.
In the same order, the values of `CO[C@H]1/C=C/O[C@@]2(C)Oc3c(C)c(O)c4c(c3C2=O)C2=NC3(CCN(CC(C)C)CC3)NC2=C(NC(=O)/C(C)=C\C=C\[C@H](C)[C@H](O)[C@@H](C)[C@@H](O)[C@@H](C)[C@H](OC(=O)CC(=O)N2CCC3(CC2)C(=O)NCN3c2ccccc2)[C@@H]1C)C4=O` [Compound 48] are 0.25 mg/L (≈ 0.226 µM), 0.03 mg/L and 0.5 mg/L.
In the same order, the values of `COc1cc(CC2CCN(C(=O)CC(=O)O[C@H]3[C@H](C)[C@H](O)[C@H](C)[C@@H](O)[C@@H](C)/C=C/C=C(/C)C(=O)NC4=C5NC6(CCN(CC(C)C)CC6)N=C5c5c(c(O)c(C)c6c5C(=O)[C@@](C)(O/C=C/[C@H](OC)[C@H]3C)O6)C4=O)CC2)cc(C(F)(F)F)c1` [Compound 51] are 2 mg/L (≈ 1.74 µM), 0.06 mg/L and 1 mg/L.
Take `CO[C@H]1/C=C/O[C@@]2(C)Oc3c(C)c(O)c4c(c3C2=O)C2=NC3(CCN(CC(C)C)CC3)NC2=C(NC(=O)/C(C)=C\C=C\[C@H](C)[C@H](O)[C@@H](C)[C@@H](O)[C@@H](C)[C@H](OC(=O)CC(=O)N2CCC([C@@H](O)c3nccn3C)CC2)[C@@H]1C)C4=O` [Compound 53]: the minimum inhibitory concentration (MIC) is 0.125 mg/L (≈ 0.117 µM) in test [1]; at most 0.002 mg/L in test [2] (HUMC1 strain, RPMI + 10% FCS); 1 mg/L in test [3] (setting [4]).
As for `CO[C@H]1/C=C/O[C@@]2(C)Oc3c(C)c(O)c4c(c3C2=O)C2=NC3(CCN(CC(C)C)CC3)NC2=C(NC(=O)/C(C)=C\C=C\[C@H](C)[C@H](O)[C@@H](C)[C@@H](O)[C@@H](C)[C@H](OC(=O)CC(=O)N2CCC(N3CCCCC3)CC2)[C@@H]1C)C4=O` [Compound 58], the MIC was 0.03 mg/L (≈ 0.0288 µM) in test [1]; at most 0.002 mg/L in test [2] (HUMC1 strain, RPMI + 10% FCS); 1 mg/L in test [3] (setting [4]).
As for `CO[C@H]1/C=C/O[C@@]2(C)Oc3c(C)c(O)c4c(c3C2=O)C2=NC3(CCN(CC(C)C)CC3)NC2=C(NC(=O)/C(C)=C\C=C\[C@H](C)[C@H](O)[C@@H](C)[C@@H](O)[C@@H](C)[C@H](OC(=O)CC(=O)N2CCC(NC(=O)OC(C)(C)C)CC2)[C@@H]1C)C4=O` [Compound 59], the MIC was 0.125 mg/L (≈ 0.116 µM) in test [1]; 0.008 mg/L in test [2] (HUMC1 strain, RPMI + 10% FCS); 0.5 mg/L in test [3] (setting [4]).
In the same order, the values of `CO[C@H]1/C=C/O[C@@]2(C)Oc3c(C)c(O)c4c(c3C2=O)C2=NC3(CCN(CC(C)C)CC3)NC2=C(NC(=O)/C(C)=C\C=C\[C@H](C)[C@H](O)[C@@H](C)[C@@H](O)[C@@H](C)[C@H](OC(=O)CC(=O)N2CCC(n3cccn3)CC2)[C@@H]1C)C4=O` [Compound 60] are 0.03 mg/L (≈ 0.0293 µM), at most 0.002 mg/L and 0.5 mg/L.
As for `CO[C@H]1/C=C/O[C@@]2(C)Oc3c(C)c(O)c4c(c3C2=O)C2=NC3(CCN(CC(C)C)CC3)NC2=C(NC(=O)/C(C)=C\C=C\[C@H](C)[C@H](O)[C@@H](C)[C@@H](O)[C@@H](C)[C@H](OC(=O)CC(=O)N2CCC(NS(=O)(=O)c3ccccc3)CC2)[C@@H]1C)C4=O` [Compound 61], the MIC in test [1] turned out to be 0.125 mg/L (≈ 0.112 µM); in test [2], 0.008 mg/L; in test [3] (ATCC19977, read-out: MIC M. abscessus), 0.5 mg/L.
Consider `CO[C@H]1/C=C/O[C@@]2(C)Oc3c(C)c(O)c4c(c3C2=O)C2=NC3(CCN(CC(C)C)CC3)NC2=C(NC(=O)/C(C)=C\C=C\[C@H](C)[C@H](O)[C@@H](C)[C@@H](O)[C@@H](C)[C@H](OC(=O)CC(=O)N2CCC(N3CCn5ccnc5C3)CC2)[C@@H]1C)C4=O` [Compound 62], for which the MIC in test [1] was 0.06 mg/L (≈ 0.0556 µM); in test [2] (HUMC1 strain, RPMI + 10% FCS), at most 0.002 mg/L; in test [3] (setting [4]) it was 1 mg/L.
Turning to `CO[C@H]1/C=C/O[C@@]2(C)Oc3c(C)c(O)c4c(c3C2=O)C2=NC3(CCN(CC(C)C)CC3)NC2=C(NC(=O)/C(C)=C\C=C\[C@H](C)[C@H](O)[C@@H](C)[C@@H](O)[C@@H](C)[C@H](OC(=O)CC(=O)N2CC(Nc3ccc(F)cc3)C2)[C@@H]1C)C4=O` [Compound 63], the MIC in test [1] turned out to be 0.25 mg/L (≈ 0.241 µM); in test [2] (HUMC1 strain, RPMI + 10% FCS), 0.016 mg/L; in test [3] (setting [4]), 0.5 mg/L.
Regarding `CO[C@H]1/C=C/O[C@@]2(C)Oc3c(C)c(O)c4c(c3C2=O)C2=NC3(CCN(CC(C)C)CC3)NC2=C(NC(=O)/C(C)=C\C=C\[C@H](C)[C@H](O)[C@@H](C)[C@@H](O)[C@@H](C)[C@H](OC(=O)CC(=O)N2CC(n3ccnn3)C2)[C@@H]1C)C4=O` [Compound 64], the minimal inhibitory concentration (MIC) in test [1] was 0.06 mg/L (≈ 0.0602 µM); in test [2] (HUMC1 strain, RPMI + 10% FCS), at most 0.002 mg/L; in test [3] (setting [4]), 1 mg/L.
In the same order, the values of `CO[C@H]1/C=C/O[C@@]2(C)Oc3c(C)c(O)c4c(c3C2=O)C2=NC3(CCN(CC(C)C)CC3)NC2=C(NC(=O)/C(C)=C\C=C\[C@H](C)[C@H](O)[C@@H](C)[C@@H](O)[C@@H](C)[C@H](OC(=O)CC(=O)N2CCc3[nH]c5ccccc5c3C2)[C@@H]1C)C4=O` [Compound 65] are 0.125 mg/L (≈ 0.12 µM), 0.016 mg/L and 0.5 mg/L.
In the case of `CO[C@H]1/C=C/O[C@@]2(C)Oc3c(C)c(O)c4c(c3C2=O)C2=NC3(CCN(CC(C)C)CC3)NC2=C(NC(=O)/C(C)=C\C=C\[C@H](C)[C@H](O)[C@@H](C)[C@@H](O)[C@@H](C)[C@H](OC(=O)CCC(=O)NCCN(C)C)[C@@H]1C)C4=O` [Compound 72], the MIC is 0.06 mg/L (≈ 0.0615 µM) in test [1]; at most 0.002 mg/L in test [2] (HUMC1 strain, RPMI + 10% FCS); 1 mg/L in test [3] (setting [4]).
In the same order, the values of `CO[C@H]1/C=C/O[C@@]2(C)Oc3c(C)c(O)c4c(c3C2=O)C2=NC3(CCN(CC(C)C)CC3)NC2=C(NC(=O)/C(C)=C\C=C\[C@H](C)[C@H](O)[C@@H](C)[C@@H](O)[C@@H](C)[C@H](OC(=O)CCC(=O)OCC2CCCN(C)C2)[C@@H]1C)C4=O` (stereo partly drawn) [Compound 73] are 0.06 mg/L (≈ 0.059 µM), at most 0.002 mg/L and 1 mg/L.
`CO[C@H]1/C=C/O[C@@]2(C)Oc3c(C)c(O)c4c(c3C2=O)C2=NC3(CCN(CC(C)C)CC3)NC2=C(NC(=O)/C(C)=C\C=C\[C@H](C)[C@H](O)[C@@H](C)[C@@H](O)[C@@H](C)[C@H](OC(=O)CCCC(=O)OCC2CCCN(C)C2)[C@@H]1C)C4=O` (stereo partly drawn) [Compound 74]: the MIC is 0.06 mg/L (≈ 0.0582 µM) in test [1]; at most 0.002 mg/L in test [2] (HUMC1 strain, RPMI + 10% FCS); 1 mg/L in test [3] (setting [4]).
Take `CO[C@H]1/C=C/O[C@@]2(C)Oc3c(C)c(O)c4c(c3C2=O)C2=NC3(CCN(CC(C)C)CC3)NC2=C(NC(=O)/C(C)=C\C=C\[C@H](C)[C@H](O)[C@@H](C)[C@@H](O)[C@@H](C)[C@H](OC(=O)CCCC(=O)OC2CCN(C)C2)[C@@H]1C)C4=O` (stereo partly drawn) [Compound 77]: the MIC in test [1] is 0.06 mg/L (≈ 0.0599 µM); in test [2] (HUMC1 strain, RPMI + 10% FCS) it was at most 0.002 mg/L; in test [3] (setting [4]), 0.5 mg/L.
In the same order, the values of `CO[C@H]1/C=C/OC2(C)Oc3c(C)c(O)c4c(c3C2=O)C2=NC3(CCN(CC(C)C)CC3)NC2=C(NC(=O)/C(C)=C\C=C\[C@H](C)[C@H](O)[C@@H](C)[C@@H](O)[C@@H](C)[C@H](OC(=O)CC(=O)N2CCn3c2nc2ccccc23)[C@@H]1C)C4=O` (stereo partly drawn) [Compound 89] are 0.125 mg/L (≈ 0.121 µM), 0.016 mg/L and 0.5 mg/L.
In the same order, the values of `CO[C@H]1/C=C/O[C@@]2(C)Oc3c(C)c(O)c4c(c3C2=O)C2=NC3(CCN(CC(C)C)CC3)NC2=C(NC(=O)/C(C)=C\C=C\[C@H](C)[C@H](O)[C@@H](C)[C@@H](O)[C@@H](C)[C@H](OC(=O)CC(=O)N2CCN(C3CN(C)C3)CC2)[C@@H]1C)C4=O` [Compound 111] are 0.125 mg/L (≈ 0.122 µM), 0.06 mg/L and 0.5 mg/L.
In the same order, the values of `CO[C@H]1/C=C/O[C@@]2(C)Oc3c(C)c(O)c4c(c3C2=O)C2=NC3(CCN(CC(C)C)CC3)NC2=C(NC(=O)/C(C)=C\C=C\[C@H](C)[C@H](O)[C@@H](C)[C@@H](O)[C@@H](C)[C@H](OC(=O)CC(=O)N2CCN(C3CCN(C)CC3)CC2)[C@@H]1C)C4=O` [Compound 112] are 0.125 mg/L (≈ 0.118 µM), 0.004 mg/L and 1 mg/L.
For the compound `CO[C@H]1/C=C/O[C@@]2(C)Oc3c(C)c(O)c4c(c3C2=O)C2=NC3(CCN(CC(C)C)CC3)NC2=C(NC(=O)/C(C)=C\C=C\[C@H](C)[C@H](O)[C@@H](C)[C@@H](O)[C@@H](C)[C@H](OC(=O)CC(=O)N2CCN(CCN(C)C)CC2)[C@@H]1C)C4=O` [Compound 113], the MIC in test [1] stood at 0.06 mg/L (≈ 0.0582 µM); in test [2] (HUMC1 strain, RPMI + 10% FCS), 0.06 mg/L; in test [3] (setting [4]), 0.5 mg/L.
Take `CO[C@H]1/C=C/O[C@@]2(C)Oc3c(C)c(O)c4c(c3C2=O)C2=NC3(CCN(CC(C)C)CC3)NC2=C(NC(=O)/C(C)=C\C=C\[C@H](C)[C@H](O)[C@@H](C)[C@@H](O)[C@@H](C)[C@H](OC(=O)CC(=O)N2CCN(CCN3CCCCC3)CC2)[C@@H]1C)C4=O` [Compound 114]: the minimum inhibitory concentration (MIC) in test [1] is 0.125 mg/L (≈ 0.117 µM); in test [2] (HUMC1 strain, RPMI + 10% FCS), at most 0.002 mg/L; in test [3] (setting [4]), 0.5 mg/L.
